According to patent US20110092448A1, “Peptide Conjugate for Oral Delivery of Hydrophilic Peptide Analgesics” (METABOLIC PHARMACEUTICALS LIMITED, priority 2005, published 2011):
Where two headings read alike, the source gives them in different places.

Key:
[1] = tested on: STZ diabetic Sprague-Dawley rats with neuropathic pain; conditions: rat, in vivo
[2] = tested on: chronic neuropathy (CCI) in Sprague-Dawley rats; conditions: rat, in vivo
[3] = tested on: neuronal nicotinic acetylcholine receptor; format: cell-based, bovine
[4] = rat, in vivo

Row | Molecule | relative oral availability [1] | minimum dose for maximal activity ([1]; po) | oral absorption (time profile of effect) ([1]; po) | minimum dose for maximal activity ([1]; sc) | analgesic effect vs vehicle group ([2]; 2 mg/kg) | withdrawal threshold after one hour ([2]; 2 mg/kg) | catecholamine release in response to nicotine [3] | analgesic effect (relieving pain) [2] | analgesic effect (relieving pain) ([2]; po) | analgesic effect (relieving pain) ([2]; sc) | oral availability compared with subcutaneous (plasma concentrations) [4]
1 | Ac-Tyr-Leu-Arg-Ile-Val-Gly-Cys-Cys-Ser-Asp-Pro-Arg-Cys-Asn-Tyr-Asp-His-Pro-Glu-Ile-Cys-NH2 (Ac-YLRIVGCCSDPRCNYDHPEIC-NH2; cysteine pairing not given here) [ACV3] | 30-70% | ~0.3 mg/kg | rapid | ~0.3 mg/kg | significant difference | increase in withdrawal threshold | decreased catecholamine release |  |  |  | 
2 | CC[C@H](C)[C@@H]1NC(=O)[C@H](CCC(=O)O)NC(=O)[C@@H]2CCCN2C(=O)[C@H](Cc2cnc[nH]2)NC(=O)[C@H](CC(=O)O)NC(=O)[C@H](Cc2ccc(O)cc2)NC(=O)[C@H](CC(N)=O)NC(=O)[C@@H]2CSSC[C@H](NC(=O)CN)C(=O)N[C@@H](CSSC[C@@H](C(N)=O)NC1=O)C(=O)N[C@@H](CO)C(=O)N[C@@H](CC(=O)O)C(=O)N1CCC[C@H]1C(=O)N[C@@H](CCCNC(=N)N)C(=O)N2 [ACV1, Gly-Cys-Cys-Ser-Asp-Pro-Arg-Cys-Asn-Tyr-Asp-His-Pro-Glu-Ile-Cys-NH2] |  |  |  |  |  |  | decreased catecholamine release | not effective | not effective | effective | 1-2%
